# Source: patent US20220009920A1 (GB005, Inc., priority 2020, published 2022)
# Columns and labels:
# Assay in all cases: Large panel kinase profiling
# Type in all cases: biochemical
# Conditions in all cases: 1 μM test article, 1 mM ATP
# EPHA7 = EPHA7 (Homo sapiens, UniProt Q15375)
# Method in brief: (§1)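 CSox-Sensor fluorescence readout; test article 1 μM, ATP 1 mM, 30° C.; kinetic reads at 1-min intervals, Ex 360/Em 485 nm.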
# EIF2AK3/PEK = target: T1, EIF2AK3/PEK (Homo sapiens, UniProt Q9NZJ5)
# T1 sequence (Q9NZJ5 30-1116): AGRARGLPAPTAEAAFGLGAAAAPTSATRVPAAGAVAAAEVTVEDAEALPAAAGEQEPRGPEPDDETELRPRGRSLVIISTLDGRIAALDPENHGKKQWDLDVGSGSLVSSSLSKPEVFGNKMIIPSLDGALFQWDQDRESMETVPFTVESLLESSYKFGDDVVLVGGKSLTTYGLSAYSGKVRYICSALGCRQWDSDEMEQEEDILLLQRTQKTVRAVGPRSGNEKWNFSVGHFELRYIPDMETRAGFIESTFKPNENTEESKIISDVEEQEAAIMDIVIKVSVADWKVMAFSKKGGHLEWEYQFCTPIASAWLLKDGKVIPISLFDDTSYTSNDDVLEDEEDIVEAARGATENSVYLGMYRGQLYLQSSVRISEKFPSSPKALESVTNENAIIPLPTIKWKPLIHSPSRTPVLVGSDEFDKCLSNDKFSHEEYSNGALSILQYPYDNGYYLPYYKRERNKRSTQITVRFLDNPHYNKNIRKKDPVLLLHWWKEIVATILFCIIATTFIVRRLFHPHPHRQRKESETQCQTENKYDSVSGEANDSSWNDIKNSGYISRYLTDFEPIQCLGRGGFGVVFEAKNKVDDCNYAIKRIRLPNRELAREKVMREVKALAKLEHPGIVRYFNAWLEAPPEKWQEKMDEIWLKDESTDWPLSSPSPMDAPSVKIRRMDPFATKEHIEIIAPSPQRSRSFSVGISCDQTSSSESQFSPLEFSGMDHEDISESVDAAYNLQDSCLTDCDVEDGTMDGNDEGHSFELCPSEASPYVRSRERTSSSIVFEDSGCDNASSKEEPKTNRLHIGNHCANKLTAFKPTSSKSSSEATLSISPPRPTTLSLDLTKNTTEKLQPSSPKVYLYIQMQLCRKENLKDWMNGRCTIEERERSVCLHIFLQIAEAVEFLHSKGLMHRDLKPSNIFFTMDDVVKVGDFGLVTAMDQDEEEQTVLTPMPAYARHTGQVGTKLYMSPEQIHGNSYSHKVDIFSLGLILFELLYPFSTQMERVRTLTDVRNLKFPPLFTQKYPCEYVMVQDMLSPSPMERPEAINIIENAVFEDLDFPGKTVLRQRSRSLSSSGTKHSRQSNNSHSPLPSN
# Method in brief: as §1
# PAK3 = PAK3 (Homo sapiens, UniProt O75914)
# PAK3, sequence (O75914 whole entry, species assumed): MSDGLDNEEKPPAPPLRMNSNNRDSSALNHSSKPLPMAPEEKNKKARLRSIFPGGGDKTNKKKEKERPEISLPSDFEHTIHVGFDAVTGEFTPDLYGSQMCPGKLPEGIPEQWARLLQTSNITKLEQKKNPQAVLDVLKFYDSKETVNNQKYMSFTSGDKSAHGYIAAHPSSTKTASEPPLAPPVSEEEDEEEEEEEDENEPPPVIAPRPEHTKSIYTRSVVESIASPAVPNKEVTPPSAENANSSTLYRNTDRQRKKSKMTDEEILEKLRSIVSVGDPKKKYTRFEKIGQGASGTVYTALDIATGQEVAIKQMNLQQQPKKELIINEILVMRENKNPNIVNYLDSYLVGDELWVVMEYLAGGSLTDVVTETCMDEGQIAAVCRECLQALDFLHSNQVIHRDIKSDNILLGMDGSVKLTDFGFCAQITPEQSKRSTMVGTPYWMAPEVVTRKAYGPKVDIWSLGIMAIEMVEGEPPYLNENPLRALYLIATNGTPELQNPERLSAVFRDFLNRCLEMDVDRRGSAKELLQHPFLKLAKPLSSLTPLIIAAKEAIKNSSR
# Method in brief: as §1
# FYNB = target: T2, FYNB (Homo sapiens, UniProt P06241)
# T2 construct: AssayQuant Technologies, Inc. (service provider)
# T2 sequence (P06241 1-534 isoform P06241-2): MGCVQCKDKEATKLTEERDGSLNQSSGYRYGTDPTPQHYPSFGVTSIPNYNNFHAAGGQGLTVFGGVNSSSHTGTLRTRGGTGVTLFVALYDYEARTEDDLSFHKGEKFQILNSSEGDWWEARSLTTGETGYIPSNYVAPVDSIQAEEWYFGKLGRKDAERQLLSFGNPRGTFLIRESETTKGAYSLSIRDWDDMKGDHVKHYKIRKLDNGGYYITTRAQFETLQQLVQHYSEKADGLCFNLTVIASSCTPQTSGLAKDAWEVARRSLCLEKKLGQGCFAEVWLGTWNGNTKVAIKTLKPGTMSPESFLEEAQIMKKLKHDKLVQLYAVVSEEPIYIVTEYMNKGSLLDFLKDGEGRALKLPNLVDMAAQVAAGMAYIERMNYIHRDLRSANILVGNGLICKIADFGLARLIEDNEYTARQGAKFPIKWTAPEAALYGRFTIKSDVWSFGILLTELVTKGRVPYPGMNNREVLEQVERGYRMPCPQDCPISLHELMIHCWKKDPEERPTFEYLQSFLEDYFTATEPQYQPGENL
# Method in brief: as §1
# CAMKK1 = target: T3, CAMKK1 (Homo sapiens, UniProt Q8N5S9)
# T3 construct: AssayQuant Technologies, Inc. (ran the panel)
# T3 sequence (Q8N5S9 whole entry, species assumed): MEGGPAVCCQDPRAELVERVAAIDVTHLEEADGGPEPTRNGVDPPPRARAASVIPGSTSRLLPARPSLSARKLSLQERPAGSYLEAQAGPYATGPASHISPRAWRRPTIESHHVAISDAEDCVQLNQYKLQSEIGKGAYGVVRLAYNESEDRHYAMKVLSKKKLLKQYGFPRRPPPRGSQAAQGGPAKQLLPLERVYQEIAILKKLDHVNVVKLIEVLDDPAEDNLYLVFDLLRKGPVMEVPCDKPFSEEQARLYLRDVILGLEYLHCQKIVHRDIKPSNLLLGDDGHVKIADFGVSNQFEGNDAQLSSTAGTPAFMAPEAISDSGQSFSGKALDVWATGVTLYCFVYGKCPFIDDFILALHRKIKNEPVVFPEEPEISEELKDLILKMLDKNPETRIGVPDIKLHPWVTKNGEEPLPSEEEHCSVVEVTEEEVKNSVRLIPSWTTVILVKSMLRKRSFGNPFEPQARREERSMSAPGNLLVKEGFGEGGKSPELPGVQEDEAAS
# Method in brief: as §1
# AURKA/AURA = target: T4, AURKA/AURA (Homo sapiens, UniProt O14965)
# T4 sequence (O14965 1-403): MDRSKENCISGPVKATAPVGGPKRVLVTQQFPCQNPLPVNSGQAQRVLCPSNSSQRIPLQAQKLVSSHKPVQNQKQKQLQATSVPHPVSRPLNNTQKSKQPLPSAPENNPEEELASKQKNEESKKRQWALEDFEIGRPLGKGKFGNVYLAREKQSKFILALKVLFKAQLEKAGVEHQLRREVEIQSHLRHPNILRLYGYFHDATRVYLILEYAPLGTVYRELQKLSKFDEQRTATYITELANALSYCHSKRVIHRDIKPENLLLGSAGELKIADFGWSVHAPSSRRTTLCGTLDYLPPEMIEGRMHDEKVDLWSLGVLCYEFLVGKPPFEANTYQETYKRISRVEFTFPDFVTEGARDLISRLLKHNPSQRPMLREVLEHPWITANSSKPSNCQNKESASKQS
# Method in brief: as §1
# ROCK2 = ROCK2 (Homo sapiens, UniProt O75116)
# ROCK2, sequence (O75116 whole entry, species assumed): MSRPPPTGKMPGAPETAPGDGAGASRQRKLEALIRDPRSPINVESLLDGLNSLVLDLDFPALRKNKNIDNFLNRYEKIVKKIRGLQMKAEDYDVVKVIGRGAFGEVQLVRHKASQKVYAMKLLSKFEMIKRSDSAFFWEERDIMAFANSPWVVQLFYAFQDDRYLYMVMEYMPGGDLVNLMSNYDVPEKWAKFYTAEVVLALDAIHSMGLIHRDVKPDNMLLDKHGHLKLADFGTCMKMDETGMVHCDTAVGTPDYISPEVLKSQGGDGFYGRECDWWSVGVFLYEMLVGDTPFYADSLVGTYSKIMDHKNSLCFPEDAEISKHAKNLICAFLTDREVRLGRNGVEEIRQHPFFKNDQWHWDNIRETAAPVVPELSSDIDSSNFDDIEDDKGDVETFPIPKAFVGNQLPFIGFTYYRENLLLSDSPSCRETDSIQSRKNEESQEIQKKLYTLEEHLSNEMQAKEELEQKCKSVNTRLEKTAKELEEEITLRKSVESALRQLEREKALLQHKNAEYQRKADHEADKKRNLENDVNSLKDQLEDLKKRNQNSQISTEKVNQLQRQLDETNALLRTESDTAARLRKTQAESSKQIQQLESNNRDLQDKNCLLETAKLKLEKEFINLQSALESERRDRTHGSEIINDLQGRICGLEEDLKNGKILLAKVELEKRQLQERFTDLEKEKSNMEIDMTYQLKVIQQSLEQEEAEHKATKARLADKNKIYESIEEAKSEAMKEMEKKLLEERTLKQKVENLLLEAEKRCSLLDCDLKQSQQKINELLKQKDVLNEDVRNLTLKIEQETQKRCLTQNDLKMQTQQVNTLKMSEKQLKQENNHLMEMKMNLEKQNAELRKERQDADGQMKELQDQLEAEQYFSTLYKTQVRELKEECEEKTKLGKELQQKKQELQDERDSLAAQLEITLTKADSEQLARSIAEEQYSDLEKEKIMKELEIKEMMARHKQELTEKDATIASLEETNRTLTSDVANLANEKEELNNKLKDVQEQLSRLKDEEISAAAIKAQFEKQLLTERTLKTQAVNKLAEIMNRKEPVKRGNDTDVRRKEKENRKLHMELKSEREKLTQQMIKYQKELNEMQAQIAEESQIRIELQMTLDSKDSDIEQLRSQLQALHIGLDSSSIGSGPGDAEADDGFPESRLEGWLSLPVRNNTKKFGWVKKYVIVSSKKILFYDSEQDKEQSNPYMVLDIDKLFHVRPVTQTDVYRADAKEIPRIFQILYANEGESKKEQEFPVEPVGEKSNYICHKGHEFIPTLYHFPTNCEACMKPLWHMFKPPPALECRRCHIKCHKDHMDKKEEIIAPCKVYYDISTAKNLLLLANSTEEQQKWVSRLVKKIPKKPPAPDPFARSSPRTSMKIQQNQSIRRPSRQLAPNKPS
# Method in brief: as §1
# PRKAA2/AMPK221 = PRKAA2/AMPK221 (Homo sapiens, UniProt P54646)
# PRKAA2/AMPK221, sequence (P54646 whole entry, species assumed): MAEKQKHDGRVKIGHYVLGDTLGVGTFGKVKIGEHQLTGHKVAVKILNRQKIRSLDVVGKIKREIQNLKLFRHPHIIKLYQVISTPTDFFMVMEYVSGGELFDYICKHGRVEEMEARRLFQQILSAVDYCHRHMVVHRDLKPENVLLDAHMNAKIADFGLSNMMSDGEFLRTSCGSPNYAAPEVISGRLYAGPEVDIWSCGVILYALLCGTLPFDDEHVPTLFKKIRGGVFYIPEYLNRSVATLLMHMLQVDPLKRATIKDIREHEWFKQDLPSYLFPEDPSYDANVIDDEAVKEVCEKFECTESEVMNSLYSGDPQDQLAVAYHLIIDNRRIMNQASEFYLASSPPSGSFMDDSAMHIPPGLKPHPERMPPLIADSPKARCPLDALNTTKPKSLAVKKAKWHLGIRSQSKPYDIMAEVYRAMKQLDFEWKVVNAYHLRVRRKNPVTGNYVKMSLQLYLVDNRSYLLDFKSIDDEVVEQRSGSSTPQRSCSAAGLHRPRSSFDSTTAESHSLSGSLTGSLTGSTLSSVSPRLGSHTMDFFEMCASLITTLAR
# PRKAA2/AMPK221, sequence (O43741 whole entry partner, species assumed): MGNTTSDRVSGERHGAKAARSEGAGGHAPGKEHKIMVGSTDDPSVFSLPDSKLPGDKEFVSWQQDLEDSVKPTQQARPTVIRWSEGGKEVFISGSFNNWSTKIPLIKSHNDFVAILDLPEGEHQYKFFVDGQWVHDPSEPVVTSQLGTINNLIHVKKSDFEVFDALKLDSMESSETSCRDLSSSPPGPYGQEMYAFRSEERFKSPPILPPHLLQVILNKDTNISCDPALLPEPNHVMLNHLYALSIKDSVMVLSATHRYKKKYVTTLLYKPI
# PRKAA2/AMPK221, sequence (P54619 whole entry partner, species assumed): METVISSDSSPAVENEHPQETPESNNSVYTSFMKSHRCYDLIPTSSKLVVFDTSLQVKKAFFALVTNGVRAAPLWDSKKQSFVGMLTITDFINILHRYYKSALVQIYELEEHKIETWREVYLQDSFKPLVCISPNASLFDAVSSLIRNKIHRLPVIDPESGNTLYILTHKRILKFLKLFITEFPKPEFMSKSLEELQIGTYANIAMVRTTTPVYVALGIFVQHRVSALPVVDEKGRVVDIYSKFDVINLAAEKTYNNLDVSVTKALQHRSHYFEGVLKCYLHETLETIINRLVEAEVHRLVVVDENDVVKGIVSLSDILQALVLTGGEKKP
# Method in brief: as §1
smiles,measurement,setting,value
"C=CC(=O)N1CCCC(c2c(F)cc(C(N)=O)c3[nH]c4c(c23)CCCCC4)C1 (single isomer, unassigned) [Compound 5-6]",inhibition at 1 µM,EPHA7,-0.1%
same,inhibition at 1 µM,EIF2AK3/PEK,-9.2%
same,inhibition at 1 µM,PAK3,5.4%
same,inhibition at 1 µM,FYNB,21%
same,inhibition at 1 µM,CAMKK1,22.2%
same,inhibition at 1 µM,AURKA/AURA,-42%
same,inhibition at 1 µM,ROCK2,-28.3%
same,inhibition at 1 µM,PRKAA2/AMPK221,-17.9%
"C=CC(=O)N1CCC[C@@H](c2c(F)cc(C(N)=O)c3[nH]c4c(c23)CC2(CC4)CC2)C1 [Compound 6-2, (S)-5-(1-acryloylpiperidin-3-yl)-6-fluoro-1,2,4,9-tetrahydrospiro[carbazole-3,1′-cyclopropane]-8-carboxamide]",inhibition at 1 µM,EPHA7,5.1%
same,inhibition at 1 µM,EIF2AK3/PEK,-18.5%
same,inhibition at 1 µM,PAK3,10.2%
same,inhibition at 1 µM,FYNB,-20%
same,inhibition at 1 µM,CAMKK1,5.7%
same,inhibition at 1 µM,AURKA/AURA,-24.7%
same,inhibition at 1 µM,ROCK2,0.8%
same,inhibition at 1 µM,PRKAA2/AMPK221,11.7%
"C=CC(=O)N1CCC[C@@H](c2c(F)cc(C(N)=O)c3[nH]c4c(c23)CCC4)C1 [Compound 10-2, (S)-8-(1-acryloylpiperidin-3-yl)-7-fluoro-1,2,3,4-tetrahydrocyclo-penta[b]indole-5-carboxamide]",inhibition at 1 µM,EPHA7,-4.7%
same,inhibition at 1 µM,EIF2AK3/PEK,-3.5%
same,inhibition at 1 µM,PAK3,21.7%
same,inhibition at 1 µM,FYNB,-36.2%
same,inhibition at 1 µM,CAMKK1,3.7%
same,inhibition at 1 µM,AURKA/AURA,-12.1%
same,inhibition at 1 µM,ROCK2,21.2%
same,inhibition at 1 µM,PRKAA2/AMPK221,32.1%
